In patent EP4186514A1, “PHARMACEUTICAL COMPOSITION FOR PREVENTING OR TREATING CHOLANGITIS OR LIVER DISEASE CAUSED BY CHOLANGITIS COMPRISING ADENOSINE DERIVATIVE” (Future Medicine Co., Ltd., priority 2021, dated 2023):

What was measured:
[1] = Storage stability of oral administration agent in 0.5 wt % methylcellulose (UPLC); assay type: physicochemical
Protocol: 0.5 wt % methylcellulose, which can be used as an excipient for oral administration, was added to the compound of the formula A, sonicated and homogenized, and then divided into a group to be stored at room temperature or at 4° C., and after 1, 3, 7, and 10 days, the stability was measured by comparing the concentration with 0.5% methyl cellulose as the control group using Waters UPLC and he results are shown in Table 12.

BDL mouse model = experiment: Efficacy in bile duct ligation (BDL) mouse model of cholangitis and liver disease; assay type: in vivo, C57BL/6 mice; settings: for Hyaluronic acid values reduced: serum ELISA, compared to BDL control group (G2)
Protocol: After 23 C57BL/6 mice were prepared and subjected to quarantine and acclimation, a bile duct ligation (BDL) surgery and a sham surgery were performed by dividing the animals into groups.
The BDL rodent model is one of the most commonly used methods to induce obstructive cholestatic injury (Tag, C. G et al., Bile Duct Ligation in Mice: Induction of Inflammatory Liver Injury and Fibrosis by Obstructive Cholestasis, J. Vis. Exp. (96), e52438, doi: 10.3791/52438 (2015)). The BDL model induces liver fibrosis and inflammation by causing obstructive cholestasis, and since such symptoms are generally observed in patients with PBC after stage II, the corresponding model may adequately reflect an important aspect of PBC pathology. The advantages of the BDL model are technical validity, reproducibility, and the short time it takes to reach the pathogenomonic status of human portal hypertension.
The surgery day was set to day 0, and the test material was orally administered once a day for 2 weeks from day 1 to day 14. The dose was 10 mL/kg based on the body weight measured before administration. As a test material, a compound of formula A mixed with 0.5% methylcellulose (MC), which is a vehicle, was used, and only the vehicle was used in the control.
The treatment contents of each group are summarized as in the following Table 1.
Blood was collected through the abdominal vein under respiratory anesthesia on day 14, and serum was isolated. After blood collection, liver tissue was collected and weighed, half of the left lateral lobe from the tissue was placed in a tube and immersed in liquid nitrogen, and the other half was fixed in neutral formalin. • Blood biochemical analysis: aspartate aminotransferase (AST), alanine aminotransferase (ALT), alkaline phosphatase (ALP), γ-glutamyl transpeptidase (GGT) and total bilirubin (T-BIL) were measured using a serum biochemical analyzer (Accute, Toshiba). In addition, after blood collection, the body weight was measured by collecting liver tissue. • mRNA expression: RNA was extracted using a portion of the left lateral lobe removed from the liver tissue, cDNA was synthesized using an RNase inhibitor (DR22-R10k, Solgent, Korea) and DiaStar ™ RT Kit, and qRT-PCR was performed using Power SYBR Green PCR Master Mix (Applied Biosystems by Thermo Fisher Scientific, USA).
The following Table 2 lists sequences of primers of mouse Gapdh, Acta2(actin alpha 2 chain), Col1a1(proalpha1(I) chain) and tissue inhibitor of metalloproteinases-1 (Timp1) used for qRT-PCR.
• Analysis of cytokine levels: TNF-α, IL-1β and hyaluronic acid levels in serum were measured using an ELISA kit. • Analysis of hydroxyproline: a portion of the left lateral lobe of liver tissue was extracted, and the hydroxyproline value of liver lysate was measured by a microplate reader (SpectraMax ABS Plus, Molecular Devices) using a hydroxyproline assay kit (Abcam).
The experimental results are shown as mean ± SD, and the test material-administered group was compared with the vehicle control (BDL, G2). Statistical analysis was performed using one-way ANOVA followed by Fisher's least significant difference test using GraphPad Prism (version 5.01) and SPSS (version 24) software. P < 0.05 was considered statistically significant.

A2A adenosine receptor = biological target: T1, A2A adenosine receptor (Homo sapiens, UniProt P29274); experiment: Radioligand binding affinity, A2A adenosine receptor ([3H]CGS-21680, HEK 293 cell); settings: percentage inhibition of specific binding of 10 µM
T1 construct: expressed in transfected cells; host or cells: HEK 293 cell
Protocol: The adenosine derivatives of the present invention were assayed for binding affinity and selectivity for A1, A2A and A3 receptors among human adenosine receptor (hAR) as follows.
Adenosine deaminase was added alone or in combination with a radioactive ligand when cerebral meninges were incubated at 30° C. for 30 min. Each of the compounds synthesized in the examples was measured for IC50 at least 6 different concentrations, and the measurements were analyzed using SigmaPlot software to determine Ki values.

A1 adenosine receptor = biological target: T2, A1 adenosine receptor (Homo sapiens, UniProt P30542); experiment: Radioligand binding affinity, A1 adenosine receptor ([3H]CCPA, CHO cells); parameters: % hA1: dose or concentration left out as unconfirmed; settings: percentage inhibition of specific binding of [3H]CCPA
T2 construct: expressed in transfected cells; host or cells: CHO cells (ATCC No. CCL-61)
T2 sequence (P30542 1-326): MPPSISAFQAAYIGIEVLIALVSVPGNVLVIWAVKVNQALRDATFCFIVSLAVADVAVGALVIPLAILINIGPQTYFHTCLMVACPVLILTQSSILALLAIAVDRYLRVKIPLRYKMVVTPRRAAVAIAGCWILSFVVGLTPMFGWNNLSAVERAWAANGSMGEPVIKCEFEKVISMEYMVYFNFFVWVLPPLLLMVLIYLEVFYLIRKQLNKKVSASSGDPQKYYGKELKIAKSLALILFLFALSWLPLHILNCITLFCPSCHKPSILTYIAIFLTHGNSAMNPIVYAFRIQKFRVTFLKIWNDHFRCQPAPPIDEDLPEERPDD
Protocol: CHO cells (ATCC No. CCL-61), in which A1 and A3 adenosine receptors were expressed, were cultured in F-12 media (Gibco, U.S.A.) supplemented with 10% fetal bovine serum (FBS) and penicillin/streptomycin (100 units/ml and 100 g/ml), at 37° C. in a 5% CO2 atmosphere. […] Incubation for 1 hr in a 37° C. incubator was followed by rapid filtration in a vacuum using a cell collector (TOMTEC, U.S.A.). Subsequently, the test tubes were washed three times with 3 ml of the buffer before radioactivity was measured using a γ-counter. […] Ki for binding affinity was determined by subtracting the non-specific binding value from the total binding value. On the basis of the specific binding values, the samples were analyzed for binding affinity to various adenosine receptors.

ICR mice = experiment: Toxicity after intraperitoneal injection, mice; assay type: in vivo; settings: intraperitoneal 20, 10 and 1 mg/kg
Protocol: The Adenosine Derivative of the present invention were assayed for cytotoxicity in animals.

rats = settings: rat, in vivo
Protocol: In order to test the single-dose toxicity of the compound of the formula A, a single dose of 2,000 mg/kg of the compound of the formula A was administered to each of five male rats and five female rats.

Equilibrium solubility = assay type: physicochemical; settings: listed as compound of the formula A
Protocol: In order to test the physicochemical properties of the adenosine derivative of the inventive concept, experiments were conducted on the compound of the formula A in vitro, and the results are shown in Table 3. Plasma stability and protein binding were measured using rat and human plasma.

[2] = 10 mg/kg oral once a day (G3), serum day 14, compared with BDL control group (G2)

T1 sequence (P29274 whole entry): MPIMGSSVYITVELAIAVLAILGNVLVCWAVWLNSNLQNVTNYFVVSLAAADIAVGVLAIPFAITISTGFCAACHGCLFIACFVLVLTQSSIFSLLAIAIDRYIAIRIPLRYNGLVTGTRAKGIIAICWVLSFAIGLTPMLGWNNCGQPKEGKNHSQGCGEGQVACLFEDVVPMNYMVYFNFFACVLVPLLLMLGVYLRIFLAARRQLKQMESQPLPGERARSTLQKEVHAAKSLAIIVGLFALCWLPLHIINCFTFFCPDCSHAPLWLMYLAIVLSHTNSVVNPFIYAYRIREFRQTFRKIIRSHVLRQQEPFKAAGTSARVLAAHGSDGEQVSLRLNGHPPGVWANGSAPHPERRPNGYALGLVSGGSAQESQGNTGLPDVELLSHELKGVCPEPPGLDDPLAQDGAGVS

For `O[C@@H]1[C@H](O)CS[C@H]1n1cnc2c(NCc3cccc(Cl)c3)nc(Cl)nc21` [Example 2, (2R,3R,4S)-2-(2-chloro-6-(3-chlorobenzylamino)-9H-purin-9-yl)tetrahydrothiophen-3,4-diol], the “Stability (%)” value ([1]; Stored at 4°C, After 1 day, 200 µg/ml) was 118±21.4%, the “Stability (%)” value ([1]; Stored at 4°C, After 1 day, 1000 µg/ml) was 76.5±11.7% and the “Stability (%)” value ([1]; Stored at 4°C, After 1 day, 3000 µg/ml) was 84.8±17.9%. For the same compound, the “Stability (%)” value ([1]; Stored at 4°C, After 3 days, 200 µg/ml) was 125±40.2%, the “Stability (%)” value ([1]; Stored at 4°C, After 3 days, 1000 µg/ml) was 87.6±9.26% and the “Stability (%)” value ([1]; Stored at 4°C, After 3 days, 3000 µg/ml) was 94.8±2.55%. The “Stability (%)” value ([1]; Stored at 4°C, After 7 days, 200 µg/ml) was 88.3±17.3%, the “Stability (%)” value ([1]; Stored at 4°C, After 7 days, 1000 µg/ml) was 80.1±27.7% and the “Stability (%)” value ([1]; Stored at 4°C, After 7 days, 3000 µg/ml) was 89.7±8.30%. The “Stability (%)” value ([1]; Stored at 4°C, After 10 days, 200 µg/ml) was 93.8±44.8%, the “Stability (%)” value ([1]; Stored at 4°C, After 10 days, 1000 µg/ml) was 79.5±22.0% and the “Stability (%)” value ([1]; Stored at 4°C, After 10 days, 3000 µg/ml) was 99.0±3.87%. The “Stability (%)” value ([1]; Stored at RT, After 1 day, 200 µg/ml) was 84.3±4.10%, the “Stability (%)” value ([1]; Stored at RT, After 1 day, 1000 µg/ml) was 82.7±16.3% and the “Stability (%)” value ([1]; Stored at RT, After 1 day, 3000 µg/ml) was 90.5±6.44%. For the same compound, the “Stability (%)” value ([1]; Stored at RT, After 3 days, 200 µg/ml) was 76.3±8.12%, the “Stability (%)” value ([1]; Stored at RT, After 3 days, 1000 µg/ml) was 82.7±37.0% and the “Stability (%)” value ([1]; Stored at RT, After 3 days, 3000 µg/ml) was 80.5±5.01%. The “Stability (%)” value ([1]; Stored at RT, After 7 days, 200 µg/ml) was 80.9±14.6%, the “Stability (%)” value ([1]; Stored at RT, After 7 days, 1000 µg/ml) was 75.4±6.66% and the “Stability (%)” value ([1]; Stored at RT, After 7 days, 3000 µg/ml) was 101±13.2%. For the same compound, the “Stability (%)” value ([1]; Stored at RT, After 10 days, 200 µg/ml) was 90.3±23.2%, the “Stability (%)” value ([1]; Stored at RT, After 10 days, 1000 µg/ml) was 94.2±9.17% and the “Stability (%)” value ([1]; Stored at RT, After 10 days, 3000 µg/ml) was 92.2±2.17%. The “content of liver hydroxyproline decreased” value (BDL mouse model; 10 mg/kg (G3), liver lysate) was 39%, the “Hyaluronic acid values reduced” value (BDL mouse model; 10 mg/kg (G3)) was 51% and the AAR decreased (BDL mouse model; [2]) was 21%. The ALT decreased (BDL mouse model; [2]) was 37%, the AST decreased (BDL mouse model; [2]) was 48% and the “Hyaluronic acid values reduced” value (BDL mouse model; 30 mg/kg (G4)) was 47%. The AST decreased (BDL mouse model; 30 mg/kg oral once a day (G4), serum day 14, compared with BDL control group (G2)) was 38%, the “Acta2 mRNA levels” value (BDL mouse model; liver tissue, qRT-PCR, BDL groups G3 (10 mg/kg) and G4 (30 mg/kg)) was “decreased” and the “% hA2A” value (A2A adenosine receptor) was 17.7%. The “% hA1” value (A1 adenosine receptor) was 37.9%, the “weight gain or feed intake versus control group” value (ICR mice) was “No difference” and the death (ICR mice; observation for 24 hrs) was “No death was observed”. For the same compound, the “death after single dose” value (rats) was “no animals died” and the Equilibrium solubility (Equilibrium solubility) was 2.76 µg/mL.
